Patent US5733563A, “Albumin based hydrogel” (Universite du Quebec a Montreal, priority 1996, dated 1998)

Columns and labels:
[1] = target: asparaginase of E.coli immobilized in hydrogel prepared with albumin and PEG 10,000 (Escherichia coli, UniProt P00805); test: Apparent Km of asparaginase immobilized in albumin-PEG 10,000 hydrogel; format: biochemical; details: slab thickness of 3 mm
Protocol: (§1) As another example of enzyme immobilization in hydrogels prepared with albumin and PEG 10,000 of Mr, the enzyme asparaginase of E.coli was used. […] The operational stability of the immobilized enzyme in presence of a continuous feeding in substrate extend at 37° C. over a 20 days period without significant loss of activity.

[2] = substrate: NC(=O)C[C@H](N)C(=O)O; test: Km of soluble asparaginase for asparagine; format: biochemical, E.coli; details: other: soluble form of the enzyme; pH 8.0; 37.0 °C
Protocol: as §1

Row | Molecule | apparent Km for the substrate asparagine [1] [µM] | Km [2] [µM]
1 | NC(=O)C[C@H](N)C(=O)O [asparagine] | 2.4 | –
2 | asparaginase of E.coli, soluble form (Escherichia coli K-12) (protein) LPNITILATGGTIAGGGDSATKSNYTVGKVGVENLVNAVPQLKDIANVKGEQVVNIGSQDMNDNVWLTLAKKINTDCDKTDGFVITHGTDTMEETAYFLDLTVKCDKPVVMVGAMRPSTSMSADGPFNLYNAVVTAADKASANRGVLVVMNDTVLDGRDVTKTNTTDVATFKSVNYGPLGYIHNGKIDYQRTPARKHTSDTPFDVSKLNELPKVGIVYNYANASDLPAKALVDAGYDGIVSAGVGNGNLYKSVFDTLATAAKTGTAVVRSSRVPTGATTQDAEVDDAKYGFVASGTLNPQKARVLLQLALTQTKDPQQIQQIFNQY | – | 2.2
